In patent US20120022143A1, “RNA Interference Mediated Inhibition of the Thymic Stromal Lymphopoietin (TSLP) Gene Expression Using Short Interfering Nucliec Acid (siNA)” (Merck Sharp & Dohme Corp, priority 2009, published 2012):
[invAb] = inverted abasic unit; d = 2'-deoxy (DNA); m = 2'-O-methyl; r = 2'-OH (RNA); f = 2'-fluoro

How the values were obtained:
[1] = tested on: TSLP mRNA; assay: Initial screening: TSLP mRNA knock-down by RT-PCR (Taqman) after RNAiMax transfection of NHLF cells; type: cell-based; conditions: 10 nM siNA, human NHLF cells; for % KD TSLP: 24 hrs post-transfection, relative to non-targeting control, normalized to GAPDH, mean ± s.d. from 2 experiments; for % KD TSLP (10 nM): mean ± s.d. (Table 5)
[2] = tested on: mTSLP mRNA; assay: Initial screening: mouse TSLP mRNA knock-down by RT-PCR (Taqman) after RNAiMax transfection of NIH 3T3 cells; type: cell-based; conditions: 10 nM siNA, 24 hrs post-transfection, mean ± s.d., summary from 2 screens
[3] = tested on: TSLP mRNA; assay: Dose response curves of TSLP mRNA knock-down in NHLF cells; type: cell-based; conditions: human NHLF cells, mean ± s.d.; for IC50: TSLP mRNA knock-down, 12 concentrations from 0.083 fM to 30 nM; for Maximum % KD in DRC: 12 concentrations of siNA from 0.083 fM to 30 nM
Method: NHLF (human; Lonza cat# CC-2512): Cells were cultured at 37° C. in the presence of 5% CO2 and grown Fibroblast Basal Medium (Lonza cat# CC-3β2) supplemented growth factors (provided with the kit) and 100 μg/mL of streptomycin and 100 U/mL penicillin.
Dose response curves were carried out in a similar fashion in 96-well plates, while maintaining a constant amount of RNAiMax in each transfection.
RNA was extracted from a 96-well plate using the TaqMan® Gene Expression Cells-to-CT™ Kit (Cat# 4399002) with a modified protocol. Briefly, a 60 uL (1 plate) or 110 uL (2 plates) of the Lysis Solution with DNase I was dispensed into each well of the Lysis Buffer Plate (twin.tec full skirt plate). The lysis buffer and stop plates were stored at 4° C. until the cells were washed.
Each well of the reverse transcription plate required 10 uL of 2× reverse transcriptase Buffer, luL of 20× reverse transcription enzyme and 2 uL of nuclease-free water. The reverse transcription master mix was prepared by mixing 2× reverse transcription buffer, 20× reverse transcription enzyme mix, and nuclease-free water. 13 uL of the reverse transcription master mix was dispensed into each well of the reverse transcription plate (semi-skirted). A separate reverse transcription plate was prepared for each cell plate. The plate was loaded onto a Biomek NX or Biomek FX Dual-96 and the Biomek method was run. The program is programmed to automatically added 7 uL of lysate from the cell lysis procedure described above into each well of the reverse transcription plate. The plate is sealed and spun on a centrifuge (1000 rpm for 30 seconds) to settle the contents to the bottom of the reverse transcription plate. The plate is placed in a thermocycler at 37° C. for 60 min, 95° C. for 5 min, and 4° C. until the plate is removed from the thermocycler. Upon removal, if not used immediately, the plate was frozen at −20° C.
A series of probes and primers were used to detect the various mRNA transcripts of the genes of TSLP, IL-8 and GAPDH in human cell lines. All the Taqman probes and primers for the experiments here-in described were supplied as pre-validated sets by Applied Biosystems, Inc. (see Table 2). The assays were performed on an ABI 7900 instrument, according to the manufacturer's instructions.
A TaqMan Gene Expression Master Mix (provided in the Cells-to-CT™, Applied Biosystems, Cat #4399002) was used. The PCR reactions were carried out at 50° C. for 2 min, 95° C. for 20 min followed by 40 cycles at 95° C. for 15 secs and 60° C. for 1 min.
The expression level of the gene of interest and % knock-down was calculated using Comparative Ct method: […]
All calculations of IC50s were performed using SigmaPlot 10.0 software. The data were analyzed using the sigmoidal dose-response (variable slope) equation for simple ligand binding. In all of the calculations of the % knock-down, the calculation was made relative to the normalized level of expression of the gene of interest in the samples treated with the non-targeting control (Ctrl siNA) unless otherwise indicated.
Summary data, as to potency and efficacy for TSLP mRNA knock-down in human cells for certain siNA molecules, is presented in Table 5. Cells for the experiments were treated with 12 concentrations of siNA ranging from 0.083 fM to 30 nM. All of the data is presented as % knockdown of TSLP normalized against the expression of GAPDH mRNA expression level. Then the data was determined as a % knockdown relative to the non-targeting control siNA.

[4] = tested on: TSLP protein; assay: TSLP ELISA in IL-1β/TNFα-stimulated NHLF cells; type: cell-based, human; conditions: relative to UC3 siRNA at matched concentration, siNA range 10 nM-0.00015 nM, concentration of the value not stated, mean ± s.d.
Method: In a 96-well plate, 57,500 NHLFcells/well were seeded in 100 uL of complete growth media and incubated overnight at 37° C. with 5% CO2. The cells were transfected with siNAs using RNAiMax (Invitrogen, Cat#13778-150); final concentration of siNAs is 10 nM-0.00015 nM. The amount of RNAiMax in each well is 0.3 uL. The siNAs were incubated for 6 hours. The medium was replaced with 95 uL of fresh complete growth medium and 5 uL/well of IL-1β/TNFα at 10 ng/ml final concentration was added. The cells were incubated for 24 hours. 95 uL of the medium from each well was collected into a separate 96-well plate. The samples were frozen immediately at −80° C. until ready the assay was ready to be performed.
ELISA was performed using DuoSet ELISA Development System (R&D systems, Cat # DY1398) according to the manufacturer's instructions. A seven point standard curve using 2-fold serial dilution in reagent diluent buffer and a high standard of 1000 pg/ml was used. The samples were not diluted. Absorbance was obtained at […] (LM1) and […] (LM2) and the difference (LM1-LM2) was recorded on a SpectraMax plate reader (Molecular Devices) within 30 minutes of stopping the reaction.
Various siNAs were also evaluated for their potential to knock-down TSLP protein using an ELISA assay. Six siNAs were tested in an TSLP ELISA assay across a range of concentrations of siNAs and the level of reduction of protein was determined relative to treatment of the cells with identical concentrations of the negative universal control siNA (UC3) (see Table 6).

25436-DC: siNA duplex: sense B GccAAGuuuuAAAuAuuAu TTB (SEQ ID NO: 55), antisense AUAAuAuuuAAAAcuuGGcUU (SEQ ID NO: 56) (sense GCCAAGUUUUAAAUAUUAUTT; antisense AUAAUAUUUAAAACUUGGCUU; sense: DNA at AGT, 2'-fluoro at CU, [invAb] at 5' end, 3' end, backbone not given here; antisense: sugars from the 5' end rrrmfmfffmmmmfffmmfmm, backbone not given here)
% KD TSLP [1]: 90 ± 5.1%
% KD TSLP (10 nM) [1]: 90 ± 5.1%
% KD mTSLP NIH3T3 [2]: 19.3 ± 6.1%
IC50 [3]: 4.1 ± 1.6 pM
Maximum % KD in DRC [3]: 86 ± 3%
% Reduction TSLP Protein [4]: 71.7 ± 20.3%

25450-DC: siNA duplex: sense B AuuuuGuGAAcAcuuuuGA TTB (SEQ ID NO: 83), antisense UCAAAAGuGuucAcAAAAuUU (SEQ ID NO: 84) (sense AUUUUGUGAACACUUUUGATT; antisense UCAAAAGUGUUCACAAAAUUU; sense: DNA at AGT, 2'-fluoro at CU, [invAb] at 5' end, 3' end, backbone not given here; antisense: sugars from the 5' end rrrmmmmfmfffmfmmmmfmm, backbone not given here)
% KD TSLP [1]: 82 ± 9.8%
% KD TSLP (10 nM) [1]: 82 ± 9.8%
% KD mTSLP NIH3T3 [2]: 8.8 ± 11%
IC50 [3]: 1.5 ± 0.3 pM
Maximum % KD in DRC [3]: 75 ± 2%
% Reduction TSLP Protein [4]: 44 ± 27.9%

25446-DC: siNA duplex: sense B cAGAAGAGuuucuuAAcuu TTB (SEQ ID NO: 75), antisense AAGuuAAGAAAcucuucuGUU (SEQ ID NO: 76) (sense CAGAAGAGUUUCUUAACUUTT; antisense AAGUUAAGAAACUCUUCUGUU; sense: DNA at AGT, 2'-fluoro at CU, [invAb] at 5' end, 3' end, backbone not given here; antisense: sugars from the 5' end r3 f2 m6 f7 m3, backbone not given here)
% KD TSLP [1]: 84 ± 3.6%
% KD TSLP (10 nM) [1]: 84 ± 3.6%
% KD mTSLP NIH3T3 [2]: −32.1 ± 18.3%
IC50 [3]: 9.1 ± 2.4 pM
Maximum % KD in DRC [3]: 85 ± 2%
% Reduction TSLP Protein [4]: 64.7 ± 3.5%

25434-DC: siNA duplex: sense B GuGGuAuAuAcAAGuAGAu TTB (SEQ ID NO: 51), antisense AUCuAcuuGuAuAuAccAcUU (SEQ ID NO: 52) (sense GUGGUAUAUACAAGUAGAUTT; antisense AUCUACUUGUAUAUACCACUU; sense: DNA at AGT, 2'-fluoro at CU, [invAb] at 5' end, 3' end, backbone not given here; antisense: sugars from the 5' end rrrfmfffmfmfmfmffmfmm, backbone not given here)
% KD TSLP [1]: 85 ± 7.6%
% KD TSLP (10 nM) [1]: 85 ± 7.6%
% KD mTSLP NIH3T3 [2]: 12.6 ± 6.5%
IC50 [3]: 6.7 ± 2.5 pM
Maximum % KD in DRC [3]: 79 ± 3%
% Reduction TSLP Protein [4]: 82.1 ± 11.8%

25449-DC: siNA duplex: sense B AGAAGAGuuucuuAAcuuA TTB (SEQ ID NO: 81), antisense UAAGuuAAGAAAcucuucuUU (SEQ ID NO: 82) (sense AGAAGAGUUUCUUAACUUATT; antisense UAAGUUAAGAAACUCUUCUUU; sense: sugars from the 5' end d7 f6 d2 f3 d3, [invAb] at 5' end, 3' end, backbone not given here; antisense: sugars from the 5' end rrrmffmmmmmmfffffffmm, backbone not given here)
% KD TSLP [1]: 84 ± 2.1%
% KD TSLP (10 nM) [1]: 84 ± 2.1%
% KD mTSLP NIH3T3 [2]: 52.9 ± 11.8%
IC50 [3]: 10.2 ± 3.1 pM
Maximum % KD in DRC [3]: 82 ± 1%
% Reduction TSLP Protein [4]: 45 ± 23.2%

25438-DC: siNA duplex: sense B GAAGcAAuuuGAAAuAAuu TTB (SEQ ID NO: 59), antisense AAUuAuuucAAAuuGcuucUU (SEQ ID NO: 60) (sense GAAGCAAUUUGAAAUAAUUTT; antisense AAUUAUUUCAAAUUGCUUCUU; sense: DNA at AGT, 2'-fluoro at CU, [invAb] at 5' end, 3' end, backbone not given here; antisense: sugars from the 5' end rrrfmffffmmmffmffffmm, backbone not given here)
% KD TSLP [1]: 85 ± 6.8%
% KD TSLP (10 nM) [1]: 85 ± 6.8%
% KD mTSLP NIH3T3 [2]: 9.8 ± 12.2%
IC50 [3]: 4.1 ± 1.2 pM
Maximum % KD in DRC [3]: 79 ± 4%
% Reduction TSLP Protein [4]: 51.9 ± 14.1%
